Experimental data as given in ChEMBL document CHEMBL1201862, “PubChem BioAssay data set” (2004).
Calls of active or inactive are those of the source.

Key:
[1] = target: T1, Polyadenylate-binding protein 1 (Homo sapiens, UniProt P11940); assay: PABP1 MLLE–PAM2 interaction inhibitors, dose response, miRNA deadenylation inhibitor project, biochemical, fluorescence polarization, Cy5-PAM2 peptide, secondary (AID 602260); format: functional; details: read-out: IC50_Mean
[2] = target: Dual specificity protein phosphatase 6 (Rattus norvegicus, UniProt Q64346); format: functional;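 also: confirmatory in vitro dose-response testing of MKP-3 inhibition; recombinant His-tagged MKP-3 made in E. coli BL21 with OMFP substrate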
Sequence of Dual specificity protein phosphatase 6 (Q64346 whole entry): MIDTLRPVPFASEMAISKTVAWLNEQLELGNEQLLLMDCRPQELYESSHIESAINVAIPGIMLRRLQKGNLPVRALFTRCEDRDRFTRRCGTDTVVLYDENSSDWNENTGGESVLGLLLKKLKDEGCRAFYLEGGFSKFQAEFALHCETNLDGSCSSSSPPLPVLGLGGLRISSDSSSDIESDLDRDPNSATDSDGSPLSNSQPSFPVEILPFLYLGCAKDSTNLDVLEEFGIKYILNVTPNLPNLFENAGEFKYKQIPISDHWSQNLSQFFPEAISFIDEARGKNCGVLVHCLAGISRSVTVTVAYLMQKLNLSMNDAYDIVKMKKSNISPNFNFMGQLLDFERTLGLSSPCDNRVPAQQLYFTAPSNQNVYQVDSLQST

[3] = target: T2, Dual specificity protein phosphatase 3 (Homo sapiens, UniProt P51452); assay: SAR VHR1 absorbance Assay for In Vitro dose response studies. [Related pubchem assays (depositor defined):AID1654, AID1661, AID1878, AID1992, AID2004]
T2 sequence (P51452 whole entry): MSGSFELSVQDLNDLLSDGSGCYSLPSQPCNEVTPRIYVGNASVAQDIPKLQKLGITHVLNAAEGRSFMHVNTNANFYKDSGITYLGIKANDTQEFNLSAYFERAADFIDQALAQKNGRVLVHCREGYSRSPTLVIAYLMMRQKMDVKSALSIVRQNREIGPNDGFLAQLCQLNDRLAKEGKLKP

[4] = target: T2, Dual specificity protein phosphatase 3; assay: MOA VHR1 Fluorescent secondary assay for identification of redox-state modulating compounds. [Related pubchem assays (depositor defined):AID1654, AID1661, AID1878, AID1957]
[5] = target: T2, Dual specificity protein phosphatase 3; assay: SAR VHR1 Fluorescent Assay for In Vitro dose response studies. [Related pubchem assays (depositor defined):AID1654, AID1661, AID1878, AID1992, AID2004, AID2070, AID2085]; format: functional
[6] = target: T3, Tyrosine-protein phosphatase non-receptor type 7 (Homo sapiens, UniProt P35236); assay: redox-dependent HePTP inhibition, mechanism study, biochemical, fluorescence (AID 2068); format: functional
T3 sequence (P35236 whole entry): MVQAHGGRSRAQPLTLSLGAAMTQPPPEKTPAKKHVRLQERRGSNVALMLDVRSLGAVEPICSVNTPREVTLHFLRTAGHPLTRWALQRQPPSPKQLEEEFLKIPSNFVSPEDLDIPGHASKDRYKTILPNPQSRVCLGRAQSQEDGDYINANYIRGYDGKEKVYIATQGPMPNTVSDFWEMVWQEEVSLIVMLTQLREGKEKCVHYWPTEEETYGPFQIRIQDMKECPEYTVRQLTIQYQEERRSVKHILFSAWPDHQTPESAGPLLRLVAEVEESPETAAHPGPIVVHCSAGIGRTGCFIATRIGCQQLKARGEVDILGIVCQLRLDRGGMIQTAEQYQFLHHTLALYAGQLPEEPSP

[7] = target: T1, Polyadenylate-binding protein 1; assay: PABP1 MLLE–PAM2 binding inhibitor potency, dose response, biochemical, fluorescence polarization, FITC-PAM2 peptide (AID 602259); format: functional; details: read-out: IC50_Mean
Keap1/Nrf2 = Keap1/Nrf2 (Homo sapiens, UniProt Q14145); assay: Keap1-Nrf2 protein-protein interaction inhibitors, dose response, biochemical, fluorescence polarization, cherry-picked samples (AID 588683)
Sequence of Keap1/Nrf2 (Q16236 whole entry): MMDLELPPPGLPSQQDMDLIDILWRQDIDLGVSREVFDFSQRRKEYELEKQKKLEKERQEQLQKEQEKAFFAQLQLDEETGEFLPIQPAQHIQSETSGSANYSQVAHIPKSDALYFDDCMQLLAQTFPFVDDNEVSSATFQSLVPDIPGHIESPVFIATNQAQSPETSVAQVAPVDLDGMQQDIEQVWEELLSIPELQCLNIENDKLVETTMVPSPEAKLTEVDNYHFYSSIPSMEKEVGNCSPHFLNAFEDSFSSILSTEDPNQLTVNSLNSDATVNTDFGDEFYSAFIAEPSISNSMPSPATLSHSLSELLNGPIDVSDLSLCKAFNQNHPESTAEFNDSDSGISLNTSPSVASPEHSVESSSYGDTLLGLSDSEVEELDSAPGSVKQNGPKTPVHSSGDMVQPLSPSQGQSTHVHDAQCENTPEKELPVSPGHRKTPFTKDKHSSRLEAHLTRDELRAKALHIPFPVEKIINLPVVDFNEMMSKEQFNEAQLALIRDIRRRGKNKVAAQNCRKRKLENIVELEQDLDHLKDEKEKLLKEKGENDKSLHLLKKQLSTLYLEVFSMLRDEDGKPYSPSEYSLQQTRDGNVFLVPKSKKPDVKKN
Sequence of Keap1/Nrf2 (Q14145 whole entry): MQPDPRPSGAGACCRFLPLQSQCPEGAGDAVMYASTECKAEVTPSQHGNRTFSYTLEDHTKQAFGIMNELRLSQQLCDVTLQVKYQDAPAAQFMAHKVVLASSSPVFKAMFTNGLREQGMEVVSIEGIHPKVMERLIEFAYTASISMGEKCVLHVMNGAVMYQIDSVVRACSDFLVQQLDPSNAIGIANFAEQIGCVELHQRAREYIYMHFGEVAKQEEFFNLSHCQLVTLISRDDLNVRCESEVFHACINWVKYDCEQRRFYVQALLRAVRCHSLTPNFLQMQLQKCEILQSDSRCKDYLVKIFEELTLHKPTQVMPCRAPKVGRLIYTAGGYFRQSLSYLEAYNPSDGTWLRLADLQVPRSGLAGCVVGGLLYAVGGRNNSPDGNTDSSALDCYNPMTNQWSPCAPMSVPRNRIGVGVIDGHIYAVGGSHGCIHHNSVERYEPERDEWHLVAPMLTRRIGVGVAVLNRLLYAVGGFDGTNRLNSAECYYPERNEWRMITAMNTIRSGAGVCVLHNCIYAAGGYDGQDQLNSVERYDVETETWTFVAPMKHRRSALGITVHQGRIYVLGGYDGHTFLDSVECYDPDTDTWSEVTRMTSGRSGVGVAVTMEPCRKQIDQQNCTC

HEK293 [8] = assay: optical interference in Abeta FP readout, dose response, artefact control for IDE activator project, biochemical, fluorescence polarization (AID 588442); format: functional, cell-based; details: Homo sapiens
Beta Lactamase = Beta Lactamase (Pseudomonas aeruginosa, UniProt Q932Y6); assay: beta-lactamase reporter inhibitor potency, dose response, artefact control for TLR9-MyD88 binding inhibitor project, BLA reporter cells, FRET fluorescence (AID 588341); format: cell-based;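 also: cell based assay in CHO-K1 cells stably expressing beta-lactamase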
Sequence of Beta Lactamase (Q932Y6 whole entry): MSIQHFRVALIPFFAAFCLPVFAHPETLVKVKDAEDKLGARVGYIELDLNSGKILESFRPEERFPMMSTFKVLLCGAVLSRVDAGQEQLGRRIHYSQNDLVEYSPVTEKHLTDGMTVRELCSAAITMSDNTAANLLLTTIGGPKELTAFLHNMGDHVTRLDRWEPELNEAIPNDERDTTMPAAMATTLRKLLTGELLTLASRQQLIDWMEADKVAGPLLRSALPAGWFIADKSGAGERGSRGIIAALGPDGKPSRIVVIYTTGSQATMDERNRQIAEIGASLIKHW

ORF 73 = ORF 73 (Human herpesvirus 8, UniProt O40947); assay: inhibitors of C-LANA binding to LBS DNA, dose response, biochemical, fluorescence polarization, cherry-picked samples (AID 504725); parameters: species or system Human gammaherpesvirus 8;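 also: fluorescence polarization of a labeled DNA duplex reporting LANA DNA binding; potency is for inhibitors that block LANA binding to the DNA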
Sequence of ORF 73 (O40947 whole entry): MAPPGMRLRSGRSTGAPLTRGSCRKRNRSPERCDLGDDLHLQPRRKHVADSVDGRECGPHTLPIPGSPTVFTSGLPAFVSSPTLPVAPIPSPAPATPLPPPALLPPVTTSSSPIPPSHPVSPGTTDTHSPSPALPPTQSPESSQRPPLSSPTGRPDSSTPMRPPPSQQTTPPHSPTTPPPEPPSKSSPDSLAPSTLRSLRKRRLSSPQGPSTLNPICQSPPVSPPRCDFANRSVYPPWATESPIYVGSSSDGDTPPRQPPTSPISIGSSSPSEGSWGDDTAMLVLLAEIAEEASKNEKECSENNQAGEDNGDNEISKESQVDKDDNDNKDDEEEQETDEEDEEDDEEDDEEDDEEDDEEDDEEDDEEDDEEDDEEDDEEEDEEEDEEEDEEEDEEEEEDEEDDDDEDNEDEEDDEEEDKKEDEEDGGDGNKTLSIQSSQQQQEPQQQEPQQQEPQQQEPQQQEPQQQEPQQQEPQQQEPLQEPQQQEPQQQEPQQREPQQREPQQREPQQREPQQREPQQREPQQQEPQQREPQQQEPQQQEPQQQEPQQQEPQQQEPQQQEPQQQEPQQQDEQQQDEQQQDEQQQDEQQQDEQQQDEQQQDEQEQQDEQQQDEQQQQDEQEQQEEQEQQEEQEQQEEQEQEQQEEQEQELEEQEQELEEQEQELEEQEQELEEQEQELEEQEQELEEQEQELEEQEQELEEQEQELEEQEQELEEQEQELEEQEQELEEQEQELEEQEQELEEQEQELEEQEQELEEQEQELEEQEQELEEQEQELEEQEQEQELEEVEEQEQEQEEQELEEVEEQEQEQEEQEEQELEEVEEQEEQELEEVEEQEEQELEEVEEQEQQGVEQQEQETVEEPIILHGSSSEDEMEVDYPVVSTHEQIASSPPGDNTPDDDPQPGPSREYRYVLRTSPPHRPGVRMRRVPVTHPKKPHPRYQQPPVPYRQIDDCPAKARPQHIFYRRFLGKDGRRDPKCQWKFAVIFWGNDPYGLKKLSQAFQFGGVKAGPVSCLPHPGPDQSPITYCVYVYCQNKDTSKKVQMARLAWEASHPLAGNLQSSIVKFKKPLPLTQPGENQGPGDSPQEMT

Insulin-degrading enzyme [9] = target: T4, Insulin-degrading enzyme (Homo sapiens, UniProt P14735); assay: activators of recombinant IDE enzyme, dose response, counter-screen for IDE activator project, biochemical, fluorescence polarization (AID 588681)
T4 sequence (P14735 whole entry): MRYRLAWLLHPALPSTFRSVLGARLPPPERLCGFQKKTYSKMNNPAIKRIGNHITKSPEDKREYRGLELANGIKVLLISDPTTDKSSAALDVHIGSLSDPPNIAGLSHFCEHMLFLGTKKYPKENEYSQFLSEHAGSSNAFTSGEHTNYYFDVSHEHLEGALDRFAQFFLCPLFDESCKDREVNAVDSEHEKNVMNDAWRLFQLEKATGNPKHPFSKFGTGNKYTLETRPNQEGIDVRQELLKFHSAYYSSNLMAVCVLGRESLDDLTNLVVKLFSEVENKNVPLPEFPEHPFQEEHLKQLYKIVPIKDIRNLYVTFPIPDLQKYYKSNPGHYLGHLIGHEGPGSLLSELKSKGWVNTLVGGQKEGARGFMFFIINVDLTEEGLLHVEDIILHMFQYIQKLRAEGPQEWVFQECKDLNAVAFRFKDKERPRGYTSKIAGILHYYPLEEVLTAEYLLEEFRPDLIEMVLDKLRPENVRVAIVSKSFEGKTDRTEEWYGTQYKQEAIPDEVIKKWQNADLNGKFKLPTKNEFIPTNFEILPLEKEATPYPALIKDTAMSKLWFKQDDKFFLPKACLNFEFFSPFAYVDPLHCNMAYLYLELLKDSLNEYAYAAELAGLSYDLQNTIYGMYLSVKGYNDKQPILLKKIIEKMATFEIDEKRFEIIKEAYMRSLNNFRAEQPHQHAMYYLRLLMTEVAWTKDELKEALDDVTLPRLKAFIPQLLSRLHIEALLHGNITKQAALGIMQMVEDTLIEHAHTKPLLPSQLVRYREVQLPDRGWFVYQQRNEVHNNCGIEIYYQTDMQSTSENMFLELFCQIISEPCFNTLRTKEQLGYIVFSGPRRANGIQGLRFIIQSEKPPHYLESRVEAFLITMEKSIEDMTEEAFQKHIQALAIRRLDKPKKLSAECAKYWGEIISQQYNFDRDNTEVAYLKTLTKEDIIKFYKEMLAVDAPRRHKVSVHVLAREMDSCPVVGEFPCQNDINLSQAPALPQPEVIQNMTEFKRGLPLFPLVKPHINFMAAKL

CHO = assay: cytotoxicity in TLR9-MyD88 CHO cells, dose response, cytotoxicity control for TLR9-MyD88 binding inhibitor project, cell-based, luminescence (AID 588339); format: functional, hamster; details: Cricetulus griseus;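 also: CHO cells stably coexpressing TLR9 and MyD88 fusions from primary screen; compound exposure lasted 48 hours before viability readout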
HEK293 [10] = assay: HEK cell cytotoxicity by LDH release, dose response, cytotoxicity control for IDE activator project, fluorescence, HEK cells (AID 588440); format: functional, cell-based; details: Homo sapiens;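 also: cytotoxicity by LDH release measuring loss of membrane integrity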
Insulin-degrading enzyme [11] = target: T4, Insulin-degrading enzyme; assay: activators of endogenous IDE in HEK cells, dose response, cell-based, fluorescence polarization (AID 588439); format: functional
[12] = target: UDP-galactopyranose mutase (Mycobacterium tuberculosis, UniProt P9WIQ1); assay: Inhibitors of Mycobacterium tuberculosis UDP-galactopyranose mutase (UGM) enzyme Measured in Biochemical System Using Plate Reader - 2105-02_Inhibitor_Dose_CherryPick_Activity. [Related pubchem assays (depositor defined):AID504439]
Sequence of UDP-galactopyranose mutase (P9WIQ1 whole entry): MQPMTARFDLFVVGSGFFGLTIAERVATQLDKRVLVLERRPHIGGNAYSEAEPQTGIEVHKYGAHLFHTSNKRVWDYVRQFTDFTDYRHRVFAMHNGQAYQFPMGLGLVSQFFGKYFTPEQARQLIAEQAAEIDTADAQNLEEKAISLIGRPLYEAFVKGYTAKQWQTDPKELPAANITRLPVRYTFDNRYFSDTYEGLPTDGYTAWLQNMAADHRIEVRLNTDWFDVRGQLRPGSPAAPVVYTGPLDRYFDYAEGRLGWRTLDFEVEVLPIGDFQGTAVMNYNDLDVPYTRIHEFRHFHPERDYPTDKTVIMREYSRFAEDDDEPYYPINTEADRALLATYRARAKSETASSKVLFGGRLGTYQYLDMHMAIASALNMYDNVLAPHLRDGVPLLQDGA

T1 sequence (P11940 whole entry): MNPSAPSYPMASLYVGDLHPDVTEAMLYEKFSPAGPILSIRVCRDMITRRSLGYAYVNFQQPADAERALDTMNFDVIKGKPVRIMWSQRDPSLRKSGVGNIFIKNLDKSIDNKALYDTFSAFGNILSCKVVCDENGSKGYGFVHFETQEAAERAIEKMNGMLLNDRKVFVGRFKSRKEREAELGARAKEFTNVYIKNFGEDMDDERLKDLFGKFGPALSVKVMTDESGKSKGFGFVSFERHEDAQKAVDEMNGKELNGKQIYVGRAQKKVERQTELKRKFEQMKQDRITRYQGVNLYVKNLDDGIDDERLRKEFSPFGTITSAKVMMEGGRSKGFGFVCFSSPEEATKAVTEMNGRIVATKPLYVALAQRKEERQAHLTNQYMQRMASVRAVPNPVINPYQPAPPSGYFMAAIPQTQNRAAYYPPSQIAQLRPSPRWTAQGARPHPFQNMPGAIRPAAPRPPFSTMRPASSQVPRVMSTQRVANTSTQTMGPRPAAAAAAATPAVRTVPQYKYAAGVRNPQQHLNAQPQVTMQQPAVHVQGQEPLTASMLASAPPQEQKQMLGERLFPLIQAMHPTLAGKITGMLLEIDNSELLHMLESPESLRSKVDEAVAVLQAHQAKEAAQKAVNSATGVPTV

Structure (SMILES)	IC50 [1]	IC50 [2]	IC50 [3]	IC50 [4]	IC50 [5]	IC50 [6]	IC50 [7]	AC50 (Keap1/Nrf2)	EC50 (HEK293 [8])	IC50 (Beta Lactamase)	AC50 (ORF 73)	EC50 (Insulin-degrading enzyme [9])	IC50 (CHO)	IC50 (HEK293 [10])	EC50 (Insulin-degrading enzyme [11])	AC50 [12]
COc1cc(C(=S)N2CCC(C)CC2)ccc1O	> 66 µM (inactive)	> 100 µM (inactive)	> 100 µM (inactive)	1.21 µM (active)	30.4 µM (active)	1.61 µM (active)	> 66 µM (inactive)									
CC(C)CCN1C(=O)c2cccc3c(N)ccc(c23)C1=O								1.71 µM (active)	13.2 µM (inactive)	4.77 µM (active)	5.98 µM (active)	> 54.7 µM (inactive)	> 49.8 µM (inactive)	> 89.3 µM (inactive)	> 54.7 µM (inactive)	2.84 µM (active)
